Test results as given in patent US8933056B2, “Soft protease inhibitors and pro-soft forms thereof” (Trustees of Tufts College, priority 2005, dated 2015).
Like-named read-outs stand apart in the source and are kept apart here.

What was measured:
DP-IV = DP-IV (Sus scrofa (Pig), UniProt P22411); experiment: DPP IV inhibition: thioxamide v. oxoamide; format: biochemical, porcine; conditions: for Inactivation Index: IC50 pH 8.0 to pH 2.0
Protocol: The inhibitory activity of a compound may be tested easily. […] A compound is then screened for its ability to inhibit the protease activity of DP-IV with respect to a […] substrate. […] Briefly, a reaction containing 50 micromol sodium Hepes (pH 7.8), 10 micromol Ala-Pro-p-nitroanilide, 6 milliunits of DP-IV, and 2% (vol/vol) dimethylformamide in a total volume of 1.0 mL. The reaction was initiated by the addition of enzyme and reaction rates were measured at 25 C; formation of reaction product (para-nitroanilide) in the presence and absence of a test compound can be detected photometrically, e.g., at 410 nm.

DP9 = DP9 (Homo sapiens (Human), UniProt Q86TI2); experiment: Selectivity for dipeptidyl peptidase isoforms, DP9; format: biochemical; conditions: for DP9 Ratio: IC50 pH 7.8 to pH 2
Protocol: (§1) The inhibitor solution is prepared by dissolving 3-5 mg of inhibitor in pH 2 solution (0.01 N HCl), such that the concentration of the solution is equal to 1 mg/10 mL. A 10 μL sample of this solution is then added to 990 μL of pH 8 buffer (0.1 M HEPES, 0.14 M NaCl), and the solution is allowed to stand at room temperature overnight.
(§2) The substrate solution is prepared by dissolving 2.0 mg of L-alanyl-L-proline-para-nitroanilide into 20 mL of pH 8 buffer.
(§3) 250 μL of enzyme solution is added to well #B1 to #H1, #A2 to #H2, and #A3 to #H3 of a 96 well plate, while well #A1 receives 250 μL of pH 8 buffer instead of enzyme solution.
(§4) A 1:10 dilution is then performed by adding inhibitor solution to #A5 and the solution is mixed well before transferring 10 μL of this solution from #A5 to #B5. The solution in #B5 is then mixed well before transferring 10 μL of this solution from #B5 to #C5. The solution in #C5 is then mixed well before transferring 10 μL of this solution from #C5 to #D5. The solution in #D5 is then mixed well before transferring 10 μL of this solution from #D5 to #E5. The solution in #E5 is then mixed well before transferring 10 μL of this solution from #E5 to #F5. The solution in #F5 is then mixed well before transferring 10 μL of this solution from #F5 to #G5. The solution in #G5 is then mixed well before transferring 10 μL of this solution from #G5 to #H5.
(§5) A 30 μL aliquot is then transferred from #H5 to #H3 for row H, and the contents are mixed well. The analogous procedure is repeated for rows G, F, E, D, C, B, and A sequentially. The plate is then shaken on a plate shaker for 5 min before allowing the plate to incubate at room temperature for an additional 5 min.
(§6) Once the plate has been allowed to incubate, 30 μL of substrate is added to each well except well #A1. […] The absorbance is then immediately read at a wavelength of 410 nm.
(§7) In this example, the assay is conducted for DPIV and DP8 or DP9. The ratio of IC50 values for each tested compound is calculated in order to determine the selectivity for the DPIV isoform. […]

DPPIV [1] = biological target: T1, DPPIV (Homo sapiens (Human), UniProt P27487); experiment: DPIV inhibition assay (Examples 2 and 3); format: biochemical; conditions: for DPPIV Ratio: IC50 pH 7.8 to pH 2
Protocol: as §1, §2, §3, §4, §5, §6, §7

DP8 = DP8 (Homo sapiens (Human), UniProt Q6V1X1); experiment: Selectivity for dipeptidyl peptidase isoforms, DP8; format: biochemical; conditions: for DP8 Ratio: IC50 pH 7.8 to pH 2
Protocol: as §1, §2, §3, §4, §5, §6, §7

Proteasome = Proteasome (Homo sapiens, UniProt P28074); experiment: X-boroLeu proteasome inhibition: thioxamide v. oxoamide; format: biochemical; conditions: IC50 ph 7.6 to ph 2.0
[2] = Inactivation at pH 7.8 followed by 1H NMR; format: physicochemical; conditions: sodium phosphate buffer; pH jump from pH 2 to pH 7.8, 1H NMR integrals fit to single exponential; read-out: half-life for the inactivation reaction
DPPIV [3] = biological target: T1, DPPIV; experiment: physchem; conditions: pH 7.8
Protocol: DPP IV inhibition was measured at various times after the pH jump and the IC50 values were plotted as a function of time. […] This value was fit to a single exponential.

[4] = pH 2.0, read-out: IC50 (pH 2.0)
[5] = pH 8.0, read-out: IC50 (pH 8.0)
[6] = pH 7.8, read-out: IC50s DP9 pH 7.8
[7] = pH 2, read-out: IC50s DPPIV pH 2
[8] = pH 7.8, read-out: IC50s DPPIV pH 7.8
[9] = pH 7.8, read-out: IC50s DP8 pH 7.8

Chain of DP8 (Q6V1X1 whole entry, species assumed, canonical isoform): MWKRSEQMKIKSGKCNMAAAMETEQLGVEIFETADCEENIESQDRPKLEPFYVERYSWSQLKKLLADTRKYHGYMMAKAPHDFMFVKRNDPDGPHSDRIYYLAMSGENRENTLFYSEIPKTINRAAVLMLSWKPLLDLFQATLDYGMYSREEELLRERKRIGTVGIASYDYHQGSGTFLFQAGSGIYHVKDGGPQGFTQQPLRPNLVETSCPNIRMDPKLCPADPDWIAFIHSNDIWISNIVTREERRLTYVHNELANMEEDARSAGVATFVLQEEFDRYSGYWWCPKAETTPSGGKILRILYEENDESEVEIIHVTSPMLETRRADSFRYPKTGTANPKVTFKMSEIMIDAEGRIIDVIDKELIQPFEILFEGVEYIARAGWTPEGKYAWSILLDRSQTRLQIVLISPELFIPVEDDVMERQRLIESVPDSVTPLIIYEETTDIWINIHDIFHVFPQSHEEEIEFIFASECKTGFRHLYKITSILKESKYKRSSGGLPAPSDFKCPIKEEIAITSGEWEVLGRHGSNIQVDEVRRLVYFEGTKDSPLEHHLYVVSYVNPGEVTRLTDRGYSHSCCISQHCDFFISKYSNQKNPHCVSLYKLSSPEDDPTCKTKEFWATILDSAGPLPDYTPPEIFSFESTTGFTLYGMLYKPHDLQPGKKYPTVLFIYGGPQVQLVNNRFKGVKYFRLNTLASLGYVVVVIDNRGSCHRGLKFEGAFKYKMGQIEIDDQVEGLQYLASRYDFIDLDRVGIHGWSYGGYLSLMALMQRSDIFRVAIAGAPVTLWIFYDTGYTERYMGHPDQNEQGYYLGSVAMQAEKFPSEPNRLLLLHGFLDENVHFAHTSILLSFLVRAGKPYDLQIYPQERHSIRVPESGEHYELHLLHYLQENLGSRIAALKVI
Chain of DP9 (Q86TI2 whole entry, species assumed, canonical isoform): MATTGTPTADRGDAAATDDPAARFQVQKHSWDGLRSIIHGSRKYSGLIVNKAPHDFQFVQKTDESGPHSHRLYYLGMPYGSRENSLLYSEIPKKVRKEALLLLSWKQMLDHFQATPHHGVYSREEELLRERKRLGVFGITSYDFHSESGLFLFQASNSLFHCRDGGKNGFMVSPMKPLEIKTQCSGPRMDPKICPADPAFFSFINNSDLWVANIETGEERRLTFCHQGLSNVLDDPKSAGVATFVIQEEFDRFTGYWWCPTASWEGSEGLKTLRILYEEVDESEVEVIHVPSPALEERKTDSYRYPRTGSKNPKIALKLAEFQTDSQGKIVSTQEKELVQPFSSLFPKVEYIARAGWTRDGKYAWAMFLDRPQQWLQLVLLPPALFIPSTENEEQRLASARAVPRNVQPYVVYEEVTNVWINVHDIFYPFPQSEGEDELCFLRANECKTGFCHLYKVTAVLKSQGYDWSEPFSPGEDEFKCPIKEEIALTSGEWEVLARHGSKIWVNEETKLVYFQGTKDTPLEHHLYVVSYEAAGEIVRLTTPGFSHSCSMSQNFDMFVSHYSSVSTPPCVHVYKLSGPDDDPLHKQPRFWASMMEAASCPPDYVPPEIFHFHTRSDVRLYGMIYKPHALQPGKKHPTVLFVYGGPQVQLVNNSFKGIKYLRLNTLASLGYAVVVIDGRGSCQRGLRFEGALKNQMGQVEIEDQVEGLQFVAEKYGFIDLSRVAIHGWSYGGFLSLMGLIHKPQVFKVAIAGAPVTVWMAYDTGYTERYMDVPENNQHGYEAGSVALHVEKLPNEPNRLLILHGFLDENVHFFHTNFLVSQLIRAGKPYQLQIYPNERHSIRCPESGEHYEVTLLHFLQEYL
Chain of Proteasome (P28074 60-263 limits assumed): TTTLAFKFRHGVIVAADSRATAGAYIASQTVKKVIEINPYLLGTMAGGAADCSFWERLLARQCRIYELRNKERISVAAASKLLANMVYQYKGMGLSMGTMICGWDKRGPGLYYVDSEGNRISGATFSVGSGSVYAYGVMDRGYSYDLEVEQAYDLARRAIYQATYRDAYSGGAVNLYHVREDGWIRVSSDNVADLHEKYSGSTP
T1 sequence (P27487 whole entry, species assumed): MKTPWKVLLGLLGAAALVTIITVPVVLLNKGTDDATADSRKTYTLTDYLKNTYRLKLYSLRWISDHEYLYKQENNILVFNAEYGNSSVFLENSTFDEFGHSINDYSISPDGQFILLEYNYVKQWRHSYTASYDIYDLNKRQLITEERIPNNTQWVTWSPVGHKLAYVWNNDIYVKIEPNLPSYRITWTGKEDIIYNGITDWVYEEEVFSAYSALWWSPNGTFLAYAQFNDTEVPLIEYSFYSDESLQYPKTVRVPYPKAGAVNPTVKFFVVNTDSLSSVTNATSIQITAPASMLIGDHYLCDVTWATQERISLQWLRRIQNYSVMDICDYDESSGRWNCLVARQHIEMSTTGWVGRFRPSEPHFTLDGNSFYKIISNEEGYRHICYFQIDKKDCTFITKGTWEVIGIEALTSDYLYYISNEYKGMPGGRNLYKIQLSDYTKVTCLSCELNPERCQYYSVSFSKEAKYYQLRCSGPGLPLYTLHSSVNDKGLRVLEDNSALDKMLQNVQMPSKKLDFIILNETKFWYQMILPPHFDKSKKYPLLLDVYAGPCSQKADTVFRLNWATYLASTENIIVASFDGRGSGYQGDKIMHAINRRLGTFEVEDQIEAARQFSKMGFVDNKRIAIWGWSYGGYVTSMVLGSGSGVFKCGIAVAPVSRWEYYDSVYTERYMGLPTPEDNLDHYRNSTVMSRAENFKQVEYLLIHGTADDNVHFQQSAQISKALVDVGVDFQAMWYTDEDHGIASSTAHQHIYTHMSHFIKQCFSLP
Chain of DP-IV (P22411 whole entry): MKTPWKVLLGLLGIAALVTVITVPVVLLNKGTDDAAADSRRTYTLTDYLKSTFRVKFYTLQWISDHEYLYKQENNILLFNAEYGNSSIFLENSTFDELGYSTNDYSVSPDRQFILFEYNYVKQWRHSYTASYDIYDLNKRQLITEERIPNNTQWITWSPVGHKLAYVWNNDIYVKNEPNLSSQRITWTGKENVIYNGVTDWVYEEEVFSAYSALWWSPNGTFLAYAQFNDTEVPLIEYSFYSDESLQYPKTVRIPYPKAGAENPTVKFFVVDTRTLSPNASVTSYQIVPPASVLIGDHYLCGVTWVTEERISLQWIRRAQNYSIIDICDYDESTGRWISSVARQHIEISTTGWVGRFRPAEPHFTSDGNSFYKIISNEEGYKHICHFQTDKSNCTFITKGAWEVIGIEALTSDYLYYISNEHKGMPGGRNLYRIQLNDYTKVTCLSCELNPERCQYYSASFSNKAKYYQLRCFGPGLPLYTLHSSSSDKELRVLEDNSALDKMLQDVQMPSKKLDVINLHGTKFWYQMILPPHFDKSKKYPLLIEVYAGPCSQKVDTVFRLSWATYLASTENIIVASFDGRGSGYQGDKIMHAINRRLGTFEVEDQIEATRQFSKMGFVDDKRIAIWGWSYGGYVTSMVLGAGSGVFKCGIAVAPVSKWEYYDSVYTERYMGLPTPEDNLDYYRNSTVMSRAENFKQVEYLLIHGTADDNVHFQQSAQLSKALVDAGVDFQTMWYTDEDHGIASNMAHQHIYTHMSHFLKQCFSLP

| Molecule | Inactivation Index (DP-IV) | IC50 (DP-IV; [4]) [nM] | IC50 (DP-IV; [5]) [nM] | further results |
| --- | --- | --- | --- | --- |
| C[C@H](NC(=O)[C@H](C)N)B(O)O [Ala-boroAla, reference compound] | 7.0 | 63 | 440 | – |
| N[C@@H](CCCC(=O)O)C(=O)N1CCC[C@H]1B(O)O [Aad-boroPro, reference compound] | 1,600 | 4.5 | 7400 | – |
| N=C(N)NCCC[C@H](N)C(=S)N1CCC[C@H]1B(O)O [Arg-boroPro Thioxamide] | – | 1.2 | – | IC50 (pH 8.0) (DP-IV; pH 8.0, result in words): No inhibition |
| Pro-boroAla (thioxam) | – | – | – | DP9 Ratio (DP9): 1.3; Ratio DP9 To DPIV (pH 2) (DP9; pH 2): 1.1; IC50 (DP9; pH 2, read-out: IC50s DP9 pH 2): 85 nM; IC50 (DP9; [6]): 110 nM; DPPIV Ratio (DPPIV [1]): 4.1; IC50 (DPPIV [1]; [7]): 76 nM; IC50 (DPPIV [1]; [8]): 310 nM; DP8 Ratio (DP8): 2.2; Ratio DPP8 to DPIV (pH 2) (DP8; pH 2): 1.8; IC50 (DP8; pH 2, read-out: IC50s DP8 pH 2): 140 nM; IC50 (DP8; [9]): 310 nM |
| N[C@@H](CCCC(=O)O)C(=S)N1CCC[C@H]1B(O)O [Aad-boroPro Thioxamide] | 12,000 | 1.6 | 19000 | – |
| CC(C)C[C@H](NC(=S)CNC(=S)c1cnccn1)B(O)O [Pyz-Gly-boroLeu Perthioxamide] | – | – | – | Inactivation Index (Proteasome): 620 |
| C[C@H](N)C(=O)N1CCC[C@H]1B(O)O [Ala-boroPro, reference compound] | – | – | – | half-life [2]: 30 min |
| C[C@H](NC(=S)[C@H](C)N)B(O)O [Ala-boroAla Thioxamide] | 1.2 | 6500 | 7700 | – |
| CC(C)C[C@H](NC(=S)[C@@H](N)Cc1ccccc1)B(O)O [Phe-boroLeu Thioxamide] | – | – | – | Inactivation Index (Proteasome): 20 |
| CC(C)C[C@H](NC(=S)[C@H](C)N)B(O)O [Ala-boroLeu Thioxamide] | – | – | – | Inactivation Index (Proteasome): 110 |
| CC(C)C[C@H](NC(=S)CN)B(O)O [Gly-boroLeu Thioxamide] | – | – | – | Inactivation Index (Proteasome): 20 |
| CC(C)C[C@H](NC(=O)CN)B(O)O [Gly-boroLeu, reference compound] | – | – | – | Inactivation Index (Proteasome): 11 |
| CC(C)C[C@H](NC(=O)[C@@H](N)Cc1ccccc1)B(O)O [Phe-boroLeu (free Velcade), Phe-boroLeu, reference compound] | – | – | – | Inactivation Index (Proteasome): 7.5 |
| CC(C)C[C@H](NC(=S)[C@@H](N)CC(=O)O)B(O)O [Asp-boroLeu Thioxamide] | – | – | – | Inactivation Index (Proteasome): 2.2 |
| CC(C)C[C@H](NC(=O)[C@H](C)N)B(O)O [Ala-boroLeu, reference compound] | – | – | – | Inactivation Index (Proteasome): 3.2 |
| N[C@@H](Cc1c[nH]c2ccccc12)C(=S)N1CCC[C@H]1B(O)O [Trp-boroPro Thioxamide] | 440 | 1.6 | 700 | – |
| CC(C)C[C@H](NC(=O)CNC(=S)c1cnccn1)B(O)O [N-(Pyrazine-2-carbothio)-Gly-boroLeu] | – | – | – | Inactivation Index (Proteasome): 4.5 |
| CC(C)C[C@H](NC(=S)CNC(=O)c1cnccn1)B(O)O [N-(Pyrazine-2-carbonyl)-Gly-boroLeu Thioxamide] | – | – | – | Inactivation Index (Proteasome): 3.8 |
| C[C@H](N)C(=S)N1CCC[C@H]1B(O)O [Ala-boroPro Thioxamide] | – | – | – | half-life (DPPIV [3]): 47 min; half-life [2]: 60 min |

More lines, main results first:

| Inactivation Index (DP-IV) | IC50 (DP-IV; [4]) [nM] | IC50 (DP-IV; [5]) [nM] | Molecule | further results |
| --- | --- | --- | --- | --- |
| 190 | 4.6 | 890 | N[C@@H](CCC(=O)O)C(=S)N1CCC[C@H]1B(O)O [Glu-boroPro Thioxamide] | DP9 Ratio (DP9): 180; Ratio DP9 To DPIV (pH 2) (DP9; pH 2): 1.9; IC50 (DP9; pH 2, read-out: IC50s DP9 pH 2): 8.7 nM; IC50 (DP9; [6]): 1800 nM; DPPIV Ratio (DPPIV [1]): 190; IC50 (DPPIV [1]; [7]): 4.6 nM; IC50 (DPPIV [1]; [8]): 890 nM; DP8 Ratio (DP8): 130; Ratio DPP8 to DPIV (pH 2) (DP8; pH 2): 3.4; IC50 (DP8; pH 2, read-out: IC50s DP8 pH 2): 16 nM; IC50 (DP8; [9]): 2000 nM |
| 2,300 | 4 | 9000 | N[C@H](C(=S)N1CCC[C@H]1B(O)O)C1CCCCC1 [Chg-boroPro Thioxamide] | – |
| 1500 | 2 | 3000 | N[C@@H](Cc1c[nH]c2ccccc12)C(=O)N1CCC[C@H]1B(O)O [Trp-boroPro, reference compound] | – |
| 1,700 | 17 | 28000 | N[C@@H](CC(=O)O)C(=S)N1CCC[C@H]1B(O)O [Asp-boroPro Thioxamide] | – |
| 630 | 3 | 1900 | NCC(=S)N1CCC[C@H]1B(O)O [Gly-boroPro Thioxamide] | – |
| 1.7 | 42 | 72 | O=C(CNC12CC3CC(CC(O)(C3)C1)C2)N1CCC[C@H]1B(O)O [NVP-LAF237 analogue, reference compound] | – |
| 1,100 | 6.4 | 7000 | OB(O)[C@@H]1CCCN1C(=S)[C@@H]1CCCN1 [Pro-boroPro Thioxamide] | DP9 Ratio (DP9): 180; Ratio DP9 To DPIV (pH 2) (DP9; pH 2): 2.5; IC50 (DP9; pH 2, read-out: IC50s DP9 pH 2): 1.9 nM; IC50 (DP9; [6]): 340 nM; IC50 (DPPIV [1]; [7]): 0.75 nM; DP8 Ratio (DP8): 720; Ratio DPP8 to DPIV (pH 2) (DP8; pH 2): 3.2; IC50 (DP8; pH 2, read-out: IC50s DP8 pH 2): 2.5 nM; IC50 (DP8; [9]): 1800 nM |
| 7,000 | 1 | 7000 | NCC(=O)N1CCC[C@H]1B(O)O [Gly-boroPro, reference compound] | – |
| 500 | 6 | 3000 | N[C@@H](CCC(=O)O)C(=O)N1CCC[C@H]1B(O)O [Glu-boroPro, reference compound] | – |
| 3,900 | 1.8 | 7100 | N=C(N)NCCC[C@H](N)C(=O)N1CCC[C@H]1B(O)O [Arg-boroPro, reference compound] | – |
| 380 | 1 | 380 | Chg-boroPro [reference compound] | – |
| 7.1 | 24 | 170 | OB(O)[C@@H]1CCCN1C(=S)CNCc1ccccc1 [N-(Benzyl)-Gly-boroPro Thioxamide] | – |
| 7,300 | 9.5 | 69000 | O=C(CNCc1ccccc1)N1CCC[C@H]1B(O)O [N-(Benzyl)-Gly-boroPro, reference compound] | – |
| 250 | 160 | 40000 | OB(O)[C@@H]1CCCN1C(=S)CNC12CC3CC(CC(O)(C3)C1)C2 [NVP-LAF237 analogue Thioxamide] | – |
| 21,000 | 1.1 | 23000 | O=C([C@@H]1CCCN1)N1CCC[C@H]1B(O)O [Pro-boroPro, reference compound] | – |
| 3.0 | 73 | 220 | CC(C)[C@H](N)C(=S)N[C@@H](C)B(O)O [Val-boroAla Thioxamide] | – |
